Among the data in ChEMBL document CHEMBL5154871, “Non-peptidyl non-covalent cathepsin C inhibitoEEr bearing a unique thiophene-substituted pyridine: Design, structure-activity relationship and anti-inflammatory activity in vivo” (Eur J Med Chem, 2022) are IC50 values, retold here.

Structures are written as SMILES.

In test [1] the target is T1, Dipeptidyl peptidase 1 (Homo sapiens, UniProt P53634). The test can be described thus: Inhibition of Cathepsin C in human THP-1 cells using H-Gly-Phe-AFC as substrate pretreated for 1 hr followed by substrate addition and incubated for 60 mins by microplate reader assay. The class given is cell-based.
Test [2] has as its target T1, Dipeptidyl peptidase 1. The test can be described thus: Inhibition of Cathepsin C in human U-937 cells using H-Gly-Phe-AFC as substrate pretreated for 1 hr followed by substrate addition and incubated for 60 mins by microplate reader assay. The class given is cell-based.
In test [3] the target is T1, Dipeptidyl peptidase 1. Description: Inhibition of human recombinant Cathepsin C using H-Gly-Arg-AMC as substrate pretreated for 30 mins followed by substrate addition and incubated for 60 mins by microplate reader assay.
In another test the target is Cathepsin B (Homo sapiens, UniProt P07858). The test can be described thus: Inhibition of human recombinant Cathepsin B using Z-Leu-Arg-AMC as substrate pretreated for 60 mins followed by substrate addition and incubated for 30 mins by microplate reader assay.

As a reminder, the IC50 is the midpoint of a concentration-inhibition curve.

T1 sequence (P53634 25-134 limits assumed): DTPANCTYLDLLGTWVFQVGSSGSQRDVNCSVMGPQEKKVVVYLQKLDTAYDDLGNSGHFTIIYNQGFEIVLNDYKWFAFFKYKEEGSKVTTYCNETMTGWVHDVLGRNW
T1 sequence (P53634 231-394 limits assumed): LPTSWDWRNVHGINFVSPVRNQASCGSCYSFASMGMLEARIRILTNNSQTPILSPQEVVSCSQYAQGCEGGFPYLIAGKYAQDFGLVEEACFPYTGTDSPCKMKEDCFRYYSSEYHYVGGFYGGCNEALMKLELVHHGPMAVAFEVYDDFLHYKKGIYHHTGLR
T1 sequence (P53634 395-463 limits assumed): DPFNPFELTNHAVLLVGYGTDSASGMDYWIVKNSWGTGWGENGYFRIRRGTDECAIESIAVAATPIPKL

Regarding `CN1CC=C(c2cnc(Nc3ccc(-c4ccsc4)cn3)nc2Nc2cccc(C(F)(F)F)c2)CC1`, the concentration for half-maximal inhibition (IC50) at Dipeptidyl peptidase 1 [1], at Dipeptidyl peptidase 1 [2] and on Dipeptidyl peptidase 1 [3] was greater than 5000 nM each time.
With `Fc1ccc(Nc2nc(Nc3ccc(-c4ccsc4)cn3)ncc2Cl)cc1`, the concentration for half-maximal inhibition (IC50) on Dipeptidyl peptidase 1 [1] turned out to be 105 nM; at Dipeptidyl peptidase 1 [2] it was 134 nM; on Dipeptidyl peptidase 1 [3], 128 nM.
With `FC(F)(F)c1cccc(Nc2nc(Nc3ccc(-c4ccsc4)cn3)ncc2-c2ccncc2)c1`, the half-inhibitory concentration (IC50) at Dipeptidyl peptidase 1 [1], at Dipeptidyl peptidase 1 [2] and on Dipeptidyl peptidase 1 [3] was greater than 5000 nM throughout.
On to `Fc1ccc(Nc2nc(Nc3ccc(-c4ccsc4)cn3)ncc2Cl)cc1C(F)(F)F`, for which the 50% inhibitory concentration (IC50) at Dipeptidyl peptidase 1 [1] was found to be 170 nM; on Dipeptidyl peptidase 1 [2], 200 nM; on Dipeptidyl peptidase 1 [3], 142 nM.
For `Clc1cnc(Nc2ccc(-c3ccsc3)cn2)nc1Nc1ccccn1` the same measures were 141 nM, 155 nM and 102 nM.
For `FC(F)(F)c1cccc(Nc2nc(Nc3ccc(-c4ccsc4)cc3)ncc2Cl)c1` the same measures were greater than 5000 nM, greater than 5000 nM and greater than 5000 nM.
Consider `Fc1ccc(Nc2nc(Nc3ccc(-c4ccsc4)cn3)ncc2Cl)cc1F`, for which the figures for the concentration for half-maximal inhibition (IC50) at Dipeptidyl peptidase 1 [1], on Dipeptidyl peptidase 1 [2] and at Dipeptidyl peptidase 1 [3] were 159 nM, 174 nM and 99.8 nM, respectively.
As to `FC(F)(F)c1cccc(Nc2nc(Nc3cccc(-c4ccsc4)c3)ncc2Cl)c1`, the half-inhibitory concentration (IC50) at Dipeptidyl peptidase 1 [1] was 203 nM; at Dipeptidyl peptidase 1 [2], 178 nM; on Cathepsin B, greater than 5000 nM; on Dipeptidyl peptidase 1 [3], 65.6 nM.
For the compound `O=[N+]([O-])c1cc(-c2ccsc2)cnc1Nc1ncc(Cl)c(Nc2cccc(C(F)(F)F)c2)n1`, the IC50 on Dipeptidyl peptidase 1 [1] came out at 197 nM; at Dipeptidyl peptidase 1 [2], 276 nM; on Dipeptidyl peptidase 1 [3], 152 nM.
Consider `Nc1cccc(Nc2nc(Nc3ccc(-c4ccsc4)cn3)ncc2Cl)c1`, for which the IC50 on Dipeptidyl peptidase 1 [1] amounted to 156 nM; on Dipeptidyl peptidase 1 [2] it was 127 nM; at Dipeptidyl peptidase 1 [3] it was 132 nM.
The corresponding values for `CC(=O)c1cccc(-c2cnc(Nc3ccc(-c4ccsc4)cn3)nc2Nc2cccc(C(F)(F)F)c2)c1` are 308 nM, 228 nM and 156 nM.
For `FC(F)(F)c1cccc(Nc2nc(Nc3cnc(-c4ccsc4)cn3)ncc2Cl)c1` the same measures were greater than 5000 nM, greater than 5000 nM and greater than 5000 nM.
The corresponding values for `NC(=O)c1cccc(-c2cnc(Nc3ccc(-c4ccsc4)cn3)nc2Nc2cccc(C(F)(F)F)c2)c1` are greater than 5000 nM, greater than 5000 nM and greater than 5000 nM.
With `CC(=O)Nc1ccc(-c2cnc(Nc3ccc(-c4ccsc4)cn3)nc2Nc2cccc(C(F)(F)F)c2)cc1`, the IC50 at Dipeptidyl peptidase 1 [1] was 102 nM; at Dipeptidyl peptidase 1 [2], 86.5 nM; on Dipeptidyl peptidase 1 [3], 61.8 nM.
The corresponding values for `Cn1cc(-c2cnc(Nc3ccc(-c4ccsc4)cn3)nc2Nc2cccc(C(F)(F)F)c2)cn1` are greater than 3000 nM, 416 nM and 248 nM.
Take `FC(F)(F)c1cccc(Nc2nc(Nc3ccc(-c4ccsc4)cn3)ncc2Br)c1`: the half-maximal inhibitory concentration (IC50) at Dipeptidyl peptidase 1 [1] stood at 203 nM; on Dipeptidyl peptidase 1 [2] it was 180 nM; at Dipeptidyl peptidase 1 [3] it was 98.6 nM.
For `FC(F)(F)c1cccc(Nc2nc(Nc3cc(-c4ccsc4)ccn3)ncc2Cl)c1` the same measures were 260 nM, 155 nM and 77.9 nM.
For `FC(F)(F)c1cccc(Nc2nc(Nc3ccc(-c4cccs4)cn3)ncc2Cl)c1` the same measures were 129 nM, 396 nM and 128 nM.
The corresponding values for `CN1CCN(Cc2ccc(-c3cnc(Nc4ccc(-c5ccsc5)cn4)nc3Nc3cccc(C(F)(F)F)c3)cc2)CC1` are greater than 5000 nM, greater than 5000 nM and greater than 5000 nM.
As to `CS(=O)(=O)c1ccc(-c2cnc(Nc3ccc(-c4ccsc4)cn3)nc2Nc2cccc(C(F)(F)F)c2)cc1`, the IC50 at Dipeptidyl peptidase 1 [1], at Dipeptidyl peptidase 1 [2] and on Dipeptidyl peptidase 1 [3] was greater than 5000 nM throughout.
Turning to `FC(F)(F)c1cccc(Nc2nc(Nc3ncc(-c4ccsc4)cn3)ncc2Cl)c1`, the IC50 on Dipeptidyl peptidase 1 [1], at Dipeptidyl peptidase 1 [2] and at Dipeptidyl peptidase 1 [3] was greater than 5000 nM each time.
Consider `FC(F)(F)c1cccc(Nc2nc(Nc3ccc(-c4ccco4)cn3)ncc2Cl)c1`, for which the IC50 at Dipeptidyl peptidase 1 [1], at Dipeptidyl peptidase 1 [2] and on Dipeptidyl peptidase 1 [3] was greater than 5000 nM throughout.
Turning to `FC(F)(F)c1cccc(Nc2nc(Nc3ccc(-c4ccsc4)cn3)ncc2-c2cccc(Cl)c2)c1`, the half-maximal inhibitory concentration (IC50) on Dipeptidyl peptidase 1 [1], on Dipeptidyl peptidase 1 [2] and on Dipeptidyl peptidase 1 [3] was greater than 5000 nM in each case.
For `Nc1ccc(Nc2nc(Nc3ccc(-c4ccsc4)cn3)ncc2Cl)cc1`, the IC50 is 111 nM at Dipeptidyl peptidase 1 [1], 89.5 nM at Dipeptidyl peptidase 1 [2], greater than 5000 nM on Cathepsin B and 57 nM at Dipeptidyl peptidase 1 [3].
Take `FC(F)(F)c1cccc(Nc2nc(Nc3ccc(-c4ccsc4)cn3)ncc2-c2ccccc2)c1`: the IC50 at Dipeptidyl peptidase 1 [1], at Dipeptidyl peptidase 1 [2] and at Dipeptidyl peptidase 1 [3] was greater than 5000 nM in each case.
In the case of `FC(F)(F)c1cccc(Nc2nc(Nc3ccc(-c4ccsc4)cn3)ncc2-c2ccc(Cl)cc2)c1`, the results for the IC50 on Dipeptidyl peptidase 1 [1], at Dipeptidyl peptidase 1 [2] and on Dipeptidyl peptidase 1 [3] were 288 nM, 356 nM and 216 nM, respectively.
On to `CC(=O)Nc1ccc(Nc2nc(Nc3ccc(-c4ccsc4)cn3)ncc2Cl)cc1`, for which the 50% inhibitory concentration (IC50) on Dipeptidyl peptidase 1 [1] worked out at 63.9 nM; at Dipeptidyl peptidase 1 [2] it was 99.9 nM; at Dipeptidyl peptidase 1 [3], 76.4 nM.
On to `FC(F)(F)Oc1cccc(Nc2nc(Nc3ccc(-c4ccsc4)cn3)ncc2Cl)c1`, for which the results for the half-inhibitory concentration (IC50) at Dipeptidyl peptidase 1 [1], at Dipeptidyl peptidase 1 [2] and at Dipeptidyl peptidase 1 [3] were 180 nM, 246 nM and 252 nM, respectively.
For `FC(F)(F)c1cccc(Nc2nc(Nc3ccc(-c4ccsc4)cn3)ncc2-c2ccoc2)c1` the same measures were greater than 5000 nM, greater than 5000 nM and greater than 5000 nM.
For `CN1CCN(c2ccc(-c3cnc(Nc4ccc(-c5ccsc5)cn4)nc3Nc3cccc(C(F)(F)F)c3)cc2)CC1` the same measures were greater than 5000 nM, greater than 5000 nM and greater than 5000 nM.
The corresponding values for `CC(=O)Nc1cccc(-c2cnc(Nc3ccc(-c4ccsc4)cn3)nc2Nc2cccc(C(F)(F)F)c2)c1` are greater than 5000 nM, greater than 5000 nM and greater than 5000 nM.
Regarding `Nc1ccc(-c2cnc(Nc3ccc(-c4ccsc4)cn3)nc2Nc2cccc(C(F)(F)F)c2)cc1`, the IC50 on Dipeptidyl peptidase 1 [1], at Dipeptidyl peptidase 1 [2] and at Dipeptidyl peptidase 1 [3] was greater than 5000 nM each time.
For `FC(F)(F)Oc1ccc(Nc2nc(Nc3ccc(-c4ccsc4)cn3)ncc2Cl)cc1`, the IC50 at Dipeptidyl peptidase 1 [1] was 110 nM; on Dipeptidyl peptidase 1 [2], 154 nM; at Dipeptidyl peptidase 1 [3], 92.4 nM.
The corresponding values for `FC(F)(F)c1ccc(CNc2nc(Nc3ccc(-c4ccsc4)cn3)ncc2Cl)cc1` are 89.8 nM, 92.2 nM and 69.4 nM.
The corresponding values for `FC(F)(F)c1cccc(Nc2nc(Nc3ccc(-c4ccsc4)nc3)ncc2Cl)c1` are 160 nM, 216 nM and 103 nM.
Turning to `NC(=O)c1ccc(-c2cnc(Nc3ccc(-c4ccsc4)cn3)nc2Nc2cccc(C(F)(F)F)c2)cc1`, the half-maximal inhibitory concentration (IC50) at Dipeptidyl peptidase 1 [1] was determined as 357 nM; at Dipeptidyl peptidase 1 [2], 285 nM; at Dipeptidyl peptidase 1 [3] it was 133 nM.
For `FC(F)(F)c1cccc(Nc2nc(Nc3ccc(-c4ccsc4)nn3)ncc2Cl)c1` the same measures were 89.5 nM, 181 nM and 90.6 nM.
The corresponding values for `Clc1cnc(Nc2ccc(-c3ccsc3)cn2)nc1NC1CCNCC1` are 120 nM, 169 nM and 91.5 nM.
For `FC(F)(F)c1ccc(Nc2nc(Nc3ccc(-c4ccsc4)cn3)ncc2Cl)cc1` the same measures were 184 nM, 150 nM and 105 nM.
